Measured values reported in article PMC10828444, “Selective inhibition of overactive warmth-sensitive Ca^2+-permeable TRPV3 channels by antispasmodic agent flopropione for alleviation of skin inflammation” (The Journal of Biological Chemistry, 2023).

Columns and labels:
TRPV3-E501A mutant = target: T1, TRPV3-E501A mutant (Homo sapiens, UniProt Q8NET8, E501A); assay: Whole-cell and single-channel recordings of TRPV3-E501A mutant; type: cell-based; conditions: 100 μM flopropione whole-cell (50 μM 2-APB); 50 μM single-channel (30 μM 2-APB)
T1 construct: expressed in transfected cells; host or cells: HEK293
T1 sequence (Q8NET8 1-790 E501A): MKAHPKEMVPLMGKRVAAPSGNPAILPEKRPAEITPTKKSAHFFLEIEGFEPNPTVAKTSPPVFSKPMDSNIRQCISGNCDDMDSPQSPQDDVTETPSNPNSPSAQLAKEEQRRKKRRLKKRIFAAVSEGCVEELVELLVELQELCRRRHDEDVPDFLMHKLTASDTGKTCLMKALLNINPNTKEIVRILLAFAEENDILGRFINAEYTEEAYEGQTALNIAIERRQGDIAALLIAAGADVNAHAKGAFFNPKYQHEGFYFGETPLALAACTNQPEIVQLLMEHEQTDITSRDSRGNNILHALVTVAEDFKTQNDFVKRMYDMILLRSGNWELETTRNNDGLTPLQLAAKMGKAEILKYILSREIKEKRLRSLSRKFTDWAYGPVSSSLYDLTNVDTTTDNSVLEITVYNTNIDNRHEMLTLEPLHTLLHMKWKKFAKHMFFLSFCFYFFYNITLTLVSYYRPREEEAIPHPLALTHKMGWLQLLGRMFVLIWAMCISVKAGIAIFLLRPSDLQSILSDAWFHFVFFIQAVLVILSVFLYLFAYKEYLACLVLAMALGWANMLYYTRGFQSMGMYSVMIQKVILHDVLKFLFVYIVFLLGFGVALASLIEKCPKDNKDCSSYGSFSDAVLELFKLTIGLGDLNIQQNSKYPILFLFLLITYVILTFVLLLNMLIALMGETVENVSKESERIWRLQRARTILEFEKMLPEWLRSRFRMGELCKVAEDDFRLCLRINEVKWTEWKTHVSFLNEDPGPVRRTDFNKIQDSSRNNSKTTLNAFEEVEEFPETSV
Protocol: (§1) HEK293 cells were cultured in Dulbecco’s modified Eagle’s medium (DMEM, Gibco) containing 4.5 g/L D-glucose supplemented with 10% fetal bovine serum based at 37 °C with 5% CO2. For whole-cell patch-clamp recordings, cells were grown in glass coverslips for 24 h before transient transfections with 3000 ng cDNAs of hTRPV3 (gene accession number BC104866.1), hTRPV1 (accession number NM_080704.3), mTRPV2 (accession number NM_011706.2), hTRPV4 (accession number NM_021625.5), hTRPA1 (accession number NM_007332.3) and hTRPM8 (accession number NM_024080.5) into HEK293 cells grown in a 35-mm cell culture dish using Lipofectamine 2000 (Invitrogen). Cells were used 18 ∼ 24 h after transfection. All WT or mutant hTRPV3 plasmids were validated by DNA sequencing.
Whole-cell patch clamp recordings of wild-type and mutants were carried out at room temperature using the HEKA EPC10 amplifier powered by PatchMaster software (HEKA) or MultiClamp 700B amplifier driven by Clampex 11.0.3 software. The borosilicate glass pipettes were pulled and fire-polished to 3∼6 MΩ using a DMZ universal electrode puller (Zeitz-Instruments, GmbH). Pipette solution and bath solution both contained (in mM): 130 NaCl, three HEPES, and 0.2 EDTA (pH = 7.4). Cell membrane potential was held at 0 mV, currents were recorded at a voltage ramp from −100 to +100 mV for 500-ms and analyzed at ±80 mV. […]

hTRPV1 = target: T2, hTRPV1 (Homo sapiens, UniProt Q8NER1); assay: Whole-cell patch-clamp of TRPV1 currents evoked by capsaicin in HEK293 cells; type: cell-based; conditions: flopropione 100 μM, 1 μM capsaicin
T2 construct: expressed in transfected cells; host or cells: HEK293
Protocol: as §1
Whole-cell patch clamp recordings of wild-type and mutants were carried out at room temperature using the HEKA EPC10 amplifier powered by PatchMaster software (HEKA) or MultiClamp 700B amplifier driven by Clampex 11.0.3 software. The borosilicate glass pipettes were pulled and fire-polished to 3∼6 MΩ using a DMZ universal electrode puller (Zeitz-Instruments, GmbH). Pipette solution and bath solution both contained (in mM): 130 NaCl, three HEPES, and 0.2 EDTA (pH = 7.4). Cell membrane potential was held at 0 mV, currents were recorded at a voltage ramp from −100 to +100 mV for 500-ms and analyzed at ±80 mV.

[1] = tested on: DNFB-induced ear swelling; assay: Mouse model of ear swelling induced by DNFB; type: in vivo, C57BL/6J mice; conditions: topical 0.1, 1, 10 mM on right ear for 4 days, vs DNFB alone
Protocol: Mice were placed in a gas anesthesia device (SurgiVet) for anesthesia before the hair on the back was removed with a razor, followed by the application of an appropriate amount of hair removal cream to gently shave off the remaining hair. For generation of atopic dermatitis and ear swelling, chemical skin sensitizer DNFB (1-Fluoro-2,4-dinitrobenzene), commonly known as Sanger’s Reagent, was dissolved in a solvent (acetone/olive oil = 4/1, v/v) and 0.5% DNFB in 100 μl was applied once topically to the back and right ear for skin sensitization 1 day after acclimatization for hair removal ([43]) without any treatment for next 3 days. On the fifth and sixth days, 0.2% DNFB in 50 μl was applied topically once a day for 2 days for challenge before different concentrations of flopropione in 100 μl were topically applied once a day for four consecutive days. […]
The score contents and criteria include (1): skin erythematous/bleeding (2), skin scratches/erosion (3), skin edema (4), skin scaling or lichenoid change ([44]). Each symptom was scored from 0 to 3 (none, 0; mild, one; moderate, two; severe, (3). The final score was defined as the sum of individual scores on a scale from 0 to 12. Mouse ear thickness was measured once a day for continuous 5 days with the first measurement of ear thickness 30 min after the last application of 0.2% DNFB using vernier caliper.

T2 sequence (Q8NER1 whole entry): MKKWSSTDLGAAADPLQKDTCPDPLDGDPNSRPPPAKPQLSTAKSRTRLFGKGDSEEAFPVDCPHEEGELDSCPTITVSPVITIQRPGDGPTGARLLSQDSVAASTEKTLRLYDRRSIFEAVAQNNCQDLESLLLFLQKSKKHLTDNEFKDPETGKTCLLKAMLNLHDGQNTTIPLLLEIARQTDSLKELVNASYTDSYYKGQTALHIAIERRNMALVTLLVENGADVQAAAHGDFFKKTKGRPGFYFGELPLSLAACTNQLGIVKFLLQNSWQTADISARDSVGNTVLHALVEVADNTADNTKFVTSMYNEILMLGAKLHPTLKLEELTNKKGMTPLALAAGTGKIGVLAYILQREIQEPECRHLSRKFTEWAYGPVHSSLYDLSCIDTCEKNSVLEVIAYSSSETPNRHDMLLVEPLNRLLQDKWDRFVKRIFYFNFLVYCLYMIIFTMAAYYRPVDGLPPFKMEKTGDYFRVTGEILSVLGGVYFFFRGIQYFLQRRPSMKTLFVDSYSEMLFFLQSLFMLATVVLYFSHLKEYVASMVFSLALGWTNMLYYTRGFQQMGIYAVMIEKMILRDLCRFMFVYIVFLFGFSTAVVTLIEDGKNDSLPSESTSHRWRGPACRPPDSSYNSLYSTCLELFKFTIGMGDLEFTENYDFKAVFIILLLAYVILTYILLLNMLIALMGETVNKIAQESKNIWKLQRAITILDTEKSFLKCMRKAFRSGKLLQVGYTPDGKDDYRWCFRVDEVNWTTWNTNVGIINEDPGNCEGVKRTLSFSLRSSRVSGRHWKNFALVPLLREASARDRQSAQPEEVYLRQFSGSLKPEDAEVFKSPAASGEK

CCC(=O)c1c(O)cc(O)cc1O [flopropione]
effect of E501A mutation on inhibition by flopropione (TRPV3-E501A mutant): significantly reduced TRPV3 inhibition
effect on TRPV1 currents (hTRPV1): no effect
ear swelling (ear thickness, vernier caliper) [1]: significantly reduced ear swelling
